Test [1] addresses T1, Apoptotic protease-activating factor 1 (Homo sapiens, UniProt O14727).
T1 sequence (O14727 whole entry): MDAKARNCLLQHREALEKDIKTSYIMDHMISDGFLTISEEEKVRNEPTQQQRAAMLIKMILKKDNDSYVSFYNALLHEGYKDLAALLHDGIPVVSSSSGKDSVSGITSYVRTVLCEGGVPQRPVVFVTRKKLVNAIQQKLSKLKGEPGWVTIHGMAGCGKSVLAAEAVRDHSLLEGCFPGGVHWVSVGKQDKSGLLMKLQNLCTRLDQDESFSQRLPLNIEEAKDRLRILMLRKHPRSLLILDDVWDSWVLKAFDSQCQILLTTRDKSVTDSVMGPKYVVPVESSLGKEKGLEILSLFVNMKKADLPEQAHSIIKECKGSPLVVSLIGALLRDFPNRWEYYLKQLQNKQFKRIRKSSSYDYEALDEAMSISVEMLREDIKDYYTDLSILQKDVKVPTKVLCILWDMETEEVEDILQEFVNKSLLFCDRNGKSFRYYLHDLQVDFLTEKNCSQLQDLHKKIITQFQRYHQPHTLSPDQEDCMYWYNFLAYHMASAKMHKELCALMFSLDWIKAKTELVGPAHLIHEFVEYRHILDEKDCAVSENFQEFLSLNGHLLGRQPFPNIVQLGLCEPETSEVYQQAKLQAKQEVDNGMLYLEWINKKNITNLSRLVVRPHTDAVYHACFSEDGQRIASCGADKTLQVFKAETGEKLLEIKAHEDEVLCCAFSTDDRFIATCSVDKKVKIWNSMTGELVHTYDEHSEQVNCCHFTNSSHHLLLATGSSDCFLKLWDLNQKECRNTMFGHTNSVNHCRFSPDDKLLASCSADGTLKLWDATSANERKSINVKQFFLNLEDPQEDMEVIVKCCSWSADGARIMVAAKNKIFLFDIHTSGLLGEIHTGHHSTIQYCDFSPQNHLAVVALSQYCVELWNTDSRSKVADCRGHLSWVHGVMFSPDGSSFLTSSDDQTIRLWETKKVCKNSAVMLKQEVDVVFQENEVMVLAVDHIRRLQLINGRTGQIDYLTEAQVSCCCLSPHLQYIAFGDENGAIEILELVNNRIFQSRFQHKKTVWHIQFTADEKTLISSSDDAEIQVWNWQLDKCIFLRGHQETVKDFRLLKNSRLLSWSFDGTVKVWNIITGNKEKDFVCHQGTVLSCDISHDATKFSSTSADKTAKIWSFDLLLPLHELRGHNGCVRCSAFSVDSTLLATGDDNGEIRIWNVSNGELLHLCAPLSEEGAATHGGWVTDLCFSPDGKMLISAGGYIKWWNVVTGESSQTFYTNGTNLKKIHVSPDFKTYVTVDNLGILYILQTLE
In words: SAR analysis of small molecule Activators of Apaf-1 in a Fluorescent assay. The class given is functional. As to conditions: read-out: EC50_Mean.

Test [2] concerns the target Voltage-gated inwardly rectifying potassium channel KCNH2 (Homo sapiens, UniProt Q12809). As to conditions: Potency.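 Note: confirmatory quantitative high-throughput screen measuring inhibition of hERG channel activity.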
For test [3], the target named is T2, Cytochrome P450 1A2 (Homo sapiens, UniProt P05177).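 Note: PubChem cytochrome P450 panel assay, CYP1A2 panel member.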
T2 sequence (P05177 whole entry): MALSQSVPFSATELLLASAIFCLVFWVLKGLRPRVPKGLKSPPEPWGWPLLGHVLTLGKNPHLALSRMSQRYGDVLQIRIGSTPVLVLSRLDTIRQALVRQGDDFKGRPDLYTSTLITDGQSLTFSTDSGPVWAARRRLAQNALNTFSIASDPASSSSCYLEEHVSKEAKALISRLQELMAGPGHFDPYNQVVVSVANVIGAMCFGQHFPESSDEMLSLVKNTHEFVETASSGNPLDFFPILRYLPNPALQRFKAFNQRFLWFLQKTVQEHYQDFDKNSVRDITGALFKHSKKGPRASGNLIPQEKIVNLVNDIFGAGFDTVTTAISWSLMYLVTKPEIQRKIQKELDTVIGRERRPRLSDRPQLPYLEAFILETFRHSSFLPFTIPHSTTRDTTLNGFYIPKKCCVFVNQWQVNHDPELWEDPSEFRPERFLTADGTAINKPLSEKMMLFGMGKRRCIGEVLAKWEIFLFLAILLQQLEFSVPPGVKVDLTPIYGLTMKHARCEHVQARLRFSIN

In test [4] the target is Cytochrome P450 2D6 (Homo sapiens, UniProt P10635).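 Note: CYP2D6 member of a cytochrome P450 panel assay.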
Test [5] has as its target T3, Serine/threonine-protein phosphatase (Candida dubliniensis (strain CD36 / CBS 7987 / NCPF 3949 / NRRLY-17841) (Yeast), UniProt B9W6M3).
T3 sequence (B9W6M3 whole entry): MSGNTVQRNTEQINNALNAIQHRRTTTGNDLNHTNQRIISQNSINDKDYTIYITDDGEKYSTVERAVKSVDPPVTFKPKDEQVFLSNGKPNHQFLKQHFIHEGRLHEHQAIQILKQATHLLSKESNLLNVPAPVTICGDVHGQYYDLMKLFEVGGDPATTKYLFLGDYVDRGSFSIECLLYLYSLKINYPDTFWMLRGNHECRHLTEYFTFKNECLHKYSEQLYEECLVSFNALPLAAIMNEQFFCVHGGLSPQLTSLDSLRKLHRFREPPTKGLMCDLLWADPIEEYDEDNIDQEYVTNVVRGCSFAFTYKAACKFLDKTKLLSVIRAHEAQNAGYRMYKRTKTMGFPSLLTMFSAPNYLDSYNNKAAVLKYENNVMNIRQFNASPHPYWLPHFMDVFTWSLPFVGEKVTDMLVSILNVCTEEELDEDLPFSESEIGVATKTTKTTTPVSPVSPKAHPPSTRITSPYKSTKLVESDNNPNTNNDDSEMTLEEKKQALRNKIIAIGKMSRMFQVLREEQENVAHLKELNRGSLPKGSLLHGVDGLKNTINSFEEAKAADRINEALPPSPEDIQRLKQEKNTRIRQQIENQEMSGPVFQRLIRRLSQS
In words: blockers of CaCl2-induced CDRE-lacZ signaling – S. cerevisiae, luminescence, secondary, dose response (AID 2388).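 Note: yeast reporter cells carrying a calcineurin-responsive lacZ construct stimulated with calcium chloride; luminescent beta-galactosidase reporter signal in whole cells rather than isolated phosphatase activity; potency for inhibition where a drop in reporter signal means calcineurin blockade.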 In kind it is functional, cell-based.

The target of test [6] is ATP-dependent molecular chaperone HSP82 (Candida albicans (strain WO-1) (Yeast), UniProt C4YTQ8). In words: steroid-induced GRE reporter decrease in yeast – S. cerevisiae, luminescence, Hsp90 inhibitor project, dose response (AID 2400).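 Note: beta-galactosidase luminescence from glucocorticoid response element reporter as proxy for Hsp90 function; inhibitor potency where signal loss means Hsp90 inhibition.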 The class given is functional, cell-based.
For test [7], the target named is T4, Streptokinase A (Streptococcus pyogenes serotype M1, UniProt P10520).
T4 sequence (P10520 whole entry): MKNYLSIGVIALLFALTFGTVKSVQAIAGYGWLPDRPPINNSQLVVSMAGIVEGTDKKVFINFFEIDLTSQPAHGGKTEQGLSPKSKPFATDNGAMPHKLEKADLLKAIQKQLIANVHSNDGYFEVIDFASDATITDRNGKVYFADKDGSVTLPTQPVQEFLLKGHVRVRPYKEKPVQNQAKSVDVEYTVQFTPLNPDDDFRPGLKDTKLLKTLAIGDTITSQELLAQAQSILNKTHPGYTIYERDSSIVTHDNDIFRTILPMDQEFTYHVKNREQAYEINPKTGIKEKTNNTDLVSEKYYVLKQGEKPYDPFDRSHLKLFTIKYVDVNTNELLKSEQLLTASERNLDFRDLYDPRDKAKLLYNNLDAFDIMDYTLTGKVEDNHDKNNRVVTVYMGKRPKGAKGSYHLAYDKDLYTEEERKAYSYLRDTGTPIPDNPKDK
In words: viability-normalized secreted streptokinase activity reduction – plasminogen activation absorbance, OD405, dose response (AID 1914).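 Note: secreted streptokinase activity via plasminogen activation per viability signal from cell pellet.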 The class given is functional, Streptococcus pyogenes M1 GAS.

A short description of test [8]: NIH-3T3 fibroblast cytotoxicity, dose response, cytotoxicity control, cell-based, fluorescence, Alamar Blue, secondary assay (AID 2327).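 Note: NIH-3T3 mouse fibroblasts cultured with fluconazole at 8 µg/mL.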 The class given is functional. For orientation: The colour change of resazurin is a common sign of viable cells or microbes.
The test system of test [9] is Streptococcus sp. 'group A'. In words: Streptococcus pyogenes SK(-)GAS viability under kanamycin – luminescence, BacTiterGlo, confirmation, counter-screen for streptokinase expression inhibitor project, dose response (AID 1900). In kind it is functional, organism-based. (A counterscreen serves to expose hits that act by an unwanted route or on another target.)
Test [10] deals with Streptococcus. In words: GAS UMAA2166 growth inhibition – luminescence, BacTiterGlo, counter-screen for streptokinase expression inhibitor project, dose response (AID 1915).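 Note: potency for reduction of bacterial viability or growth.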 The class given is functional, organism-based.
Test [11] in a line: fluconazole-exposed Candida albicans growth modulators – fluorescence, retest, confirmation (AID 2467). The class given is functional, cell-based.
Test [12] deals with Cytochrome P450 3A4 (Homo sapiens, UniProt P08684). The conditions noted are these: Potency.
Test [13] has as its target T5, Corticotropin-releasing factor receptor 2/Corticotropin-releasing factor-binding protein (Homo sapiens, UniProt P24387+Q13324).
T5 sequence (Q13324 whole entry): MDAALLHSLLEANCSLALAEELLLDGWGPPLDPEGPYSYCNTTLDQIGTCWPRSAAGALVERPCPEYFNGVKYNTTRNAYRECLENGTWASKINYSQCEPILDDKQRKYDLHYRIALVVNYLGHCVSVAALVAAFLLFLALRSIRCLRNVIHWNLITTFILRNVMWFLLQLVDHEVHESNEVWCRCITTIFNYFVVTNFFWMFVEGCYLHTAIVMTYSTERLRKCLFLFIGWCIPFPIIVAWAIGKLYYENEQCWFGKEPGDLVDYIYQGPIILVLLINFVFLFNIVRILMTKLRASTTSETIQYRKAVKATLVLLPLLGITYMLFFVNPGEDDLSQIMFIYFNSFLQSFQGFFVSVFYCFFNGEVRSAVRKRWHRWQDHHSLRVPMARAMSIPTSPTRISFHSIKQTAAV
T5 sequence (P24387 whole entry): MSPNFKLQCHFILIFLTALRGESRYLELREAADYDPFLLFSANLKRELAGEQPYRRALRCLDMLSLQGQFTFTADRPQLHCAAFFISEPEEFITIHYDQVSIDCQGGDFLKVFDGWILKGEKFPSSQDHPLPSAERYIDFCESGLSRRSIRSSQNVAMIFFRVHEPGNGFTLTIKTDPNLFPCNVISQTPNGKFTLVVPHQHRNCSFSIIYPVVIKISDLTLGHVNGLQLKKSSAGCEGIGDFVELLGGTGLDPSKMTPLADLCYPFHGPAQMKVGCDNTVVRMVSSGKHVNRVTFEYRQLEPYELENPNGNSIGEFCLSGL
In words: activators of CRF receptor 2 with binding protein – uHTS hits, confirmation (AID 602473). In kind it is functional. As to conditions: read-out: EC50_Mean.

Test [14] in a line: HPDE-C7 pancreatic duct cell viability loss – fluorescence, HTS (AID 430). In kind it is functional, cell-based. As to conditions: Homo sapiens.
The nature of test [15]: viability loss of HPDE-C7K cells – cell-based, fluorescence, HTS, primary screen (AID 431). The conditions noted are these: Homo sapiens. In kind it is functional.
Test [16] addresses FAD-linked sulfhydryl oxidase ALR (Homo sapiens, UniProt P55789). In words: ALR-catalysed DTT oxidation blockers – biochemical, H2O2 detection, luminescence, cherry-pick, dose response (AID 493248).
In test [17] the target is T6, Low molecular weight phosphotyrosine protein phosphatase (Homo sapiens, UniProt P24666).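 Note: Dose-response confirmation assay measuring inhibition of LMPTP enzyme activity by fluorescence intensity read-out.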
T6 sequence (P24666 whole entry): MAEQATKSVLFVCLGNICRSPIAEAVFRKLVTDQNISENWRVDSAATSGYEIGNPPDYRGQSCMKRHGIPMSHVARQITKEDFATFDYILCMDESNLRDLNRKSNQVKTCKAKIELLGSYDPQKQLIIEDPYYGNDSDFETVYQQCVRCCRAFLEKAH
The class given is functional. The conditions noted are these: read-out: IC50_Mean.

Molecules are shown by their SMILES. Where a name gives a salt, the structure may show the parent alone. Active and inactive are the calls of the source. Cut-off read from the data, not from the text of the source, for most assays here: actives have a measured EC50 and inactives only a lower limit.

Sequence of ATP-dependent molecular chaperone HSP82 (C4YTQ8 whole entry): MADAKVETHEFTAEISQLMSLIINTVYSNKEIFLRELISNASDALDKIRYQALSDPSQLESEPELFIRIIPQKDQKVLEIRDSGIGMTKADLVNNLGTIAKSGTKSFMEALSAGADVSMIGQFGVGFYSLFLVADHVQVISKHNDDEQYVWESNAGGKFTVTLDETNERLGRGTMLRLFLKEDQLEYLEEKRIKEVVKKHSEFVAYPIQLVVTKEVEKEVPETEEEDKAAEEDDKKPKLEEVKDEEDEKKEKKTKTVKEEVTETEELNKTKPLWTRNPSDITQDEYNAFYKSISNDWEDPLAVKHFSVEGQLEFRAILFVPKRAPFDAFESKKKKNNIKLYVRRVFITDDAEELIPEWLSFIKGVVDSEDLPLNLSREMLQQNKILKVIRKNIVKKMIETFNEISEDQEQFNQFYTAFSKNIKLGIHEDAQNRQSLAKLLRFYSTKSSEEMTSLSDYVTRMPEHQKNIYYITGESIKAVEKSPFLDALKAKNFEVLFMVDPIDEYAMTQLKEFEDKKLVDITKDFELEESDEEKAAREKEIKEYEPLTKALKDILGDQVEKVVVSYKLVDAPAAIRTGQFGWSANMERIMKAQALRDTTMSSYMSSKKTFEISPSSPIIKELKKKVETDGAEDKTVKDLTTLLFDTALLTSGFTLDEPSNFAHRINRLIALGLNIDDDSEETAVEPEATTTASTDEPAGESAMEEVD
Sequence of Voltage-gated inwardly rectifying potassium channel KCNH2 (Q12809 whole entry): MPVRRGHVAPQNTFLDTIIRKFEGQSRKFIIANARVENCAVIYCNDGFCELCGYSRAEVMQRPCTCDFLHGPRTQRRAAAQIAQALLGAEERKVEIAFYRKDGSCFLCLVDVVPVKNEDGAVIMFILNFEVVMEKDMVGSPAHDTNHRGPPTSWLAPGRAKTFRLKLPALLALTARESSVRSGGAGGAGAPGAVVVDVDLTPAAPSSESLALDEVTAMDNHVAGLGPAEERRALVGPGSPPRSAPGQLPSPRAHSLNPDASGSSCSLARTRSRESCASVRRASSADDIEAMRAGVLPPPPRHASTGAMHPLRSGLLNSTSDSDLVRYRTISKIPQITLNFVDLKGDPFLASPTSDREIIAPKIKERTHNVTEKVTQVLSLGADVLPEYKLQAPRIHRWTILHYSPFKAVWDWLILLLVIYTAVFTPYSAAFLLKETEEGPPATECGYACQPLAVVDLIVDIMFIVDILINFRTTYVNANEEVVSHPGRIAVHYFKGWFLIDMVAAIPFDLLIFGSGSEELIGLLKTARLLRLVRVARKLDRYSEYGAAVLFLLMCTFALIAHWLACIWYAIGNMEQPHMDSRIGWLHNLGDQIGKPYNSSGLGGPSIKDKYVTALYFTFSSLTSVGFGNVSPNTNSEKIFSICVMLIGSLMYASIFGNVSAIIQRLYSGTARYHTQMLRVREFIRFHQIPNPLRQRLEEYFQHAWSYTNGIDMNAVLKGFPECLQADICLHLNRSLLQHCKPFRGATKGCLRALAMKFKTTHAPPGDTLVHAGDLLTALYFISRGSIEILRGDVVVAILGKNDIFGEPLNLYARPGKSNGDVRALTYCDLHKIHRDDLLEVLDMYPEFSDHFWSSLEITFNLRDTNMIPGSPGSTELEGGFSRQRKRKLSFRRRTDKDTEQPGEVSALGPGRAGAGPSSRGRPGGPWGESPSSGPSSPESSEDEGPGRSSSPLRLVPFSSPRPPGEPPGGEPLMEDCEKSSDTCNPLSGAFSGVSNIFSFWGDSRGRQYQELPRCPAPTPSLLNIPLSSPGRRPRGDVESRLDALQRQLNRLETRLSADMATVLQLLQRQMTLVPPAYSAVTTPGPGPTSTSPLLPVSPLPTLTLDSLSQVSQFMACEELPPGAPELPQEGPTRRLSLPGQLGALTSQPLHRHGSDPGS
Sequence of FAD-linked sulfhydryl oxidase ALR (P55789 whole entry): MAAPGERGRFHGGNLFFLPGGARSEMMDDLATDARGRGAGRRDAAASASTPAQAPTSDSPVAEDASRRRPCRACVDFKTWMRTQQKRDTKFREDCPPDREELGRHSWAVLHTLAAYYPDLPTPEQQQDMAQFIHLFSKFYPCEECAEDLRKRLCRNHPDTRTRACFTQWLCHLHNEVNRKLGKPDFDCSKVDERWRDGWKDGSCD
Sequence of Cytochrome P450 2D6 (P10635 whole entry): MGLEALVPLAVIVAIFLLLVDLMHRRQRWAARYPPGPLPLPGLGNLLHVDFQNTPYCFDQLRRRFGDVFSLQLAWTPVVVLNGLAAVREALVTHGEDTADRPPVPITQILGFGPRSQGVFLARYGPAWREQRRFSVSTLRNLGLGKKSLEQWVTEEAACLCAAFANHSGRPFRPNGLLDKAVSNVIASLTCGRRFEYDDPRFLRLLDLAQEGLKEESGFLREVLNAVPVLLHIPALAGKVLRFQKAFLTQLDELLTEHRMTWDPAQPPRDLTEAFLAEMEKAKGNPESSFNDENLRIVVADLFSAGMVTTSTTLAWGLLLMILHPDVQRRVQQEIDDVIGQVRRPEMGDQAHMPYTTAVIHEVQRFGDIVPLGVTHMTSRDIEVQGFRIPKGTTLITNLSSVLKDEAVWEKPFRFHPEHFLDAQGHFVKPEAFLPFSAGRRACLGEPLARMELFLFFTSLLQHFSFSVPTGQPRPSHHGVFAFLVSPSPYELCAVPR
Sequence of Cytochrome P450 3A4 (P08684 whole entry): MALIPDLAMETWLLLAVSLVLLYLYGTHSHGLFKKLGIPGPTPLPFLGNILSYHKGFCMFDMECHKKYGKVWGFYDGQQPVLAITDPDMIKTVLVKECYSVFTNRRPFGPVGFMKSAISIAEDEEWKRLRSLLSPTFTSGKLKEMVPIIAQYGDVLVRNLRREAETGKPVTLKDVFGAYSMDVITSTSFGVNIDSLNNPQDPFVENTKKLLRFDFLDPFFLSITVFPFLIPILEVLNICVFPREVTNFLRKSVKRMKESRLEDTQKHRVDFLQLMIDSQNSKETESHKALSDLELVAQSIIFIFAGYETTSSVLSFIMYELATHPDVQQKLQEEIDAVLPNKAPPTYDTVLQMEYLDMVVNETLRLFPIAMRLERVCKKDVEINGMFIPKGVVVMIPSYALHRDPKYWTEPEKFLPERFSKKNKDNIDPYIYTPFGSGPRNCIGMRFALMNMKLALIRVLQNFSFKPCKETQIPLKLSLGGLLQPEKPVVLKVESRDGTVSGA

`CCOC(=O)C1(C)Oc2ccccc2NC1=O` (centres undefined): the EC50 in [1] is > 100 µM (inactive).
Turning to `NNC(=O)c1ccncc1` [ISONIAZID], the results for the AC50 in test [2], in test [3] and in test [4] were 35.5 µM (inconclusive), 6.31 µM (inconclusive) and 12.6 µM (inconclusive), respectively.
Turning to `O=C(Nc1nnc(-c2ccncc2)o1)c1ccc2ccccc2c1`, the EC50 in test [5] was > 180 µM (inactive); in test [6] it was > 150 µM (inactive); in test [7] it was > 150 µM (not active); in [8], > 150 µM (inactive); in test [9], 6.52 µM (active); in [10], 19.5 µM (active). Besides, in test [11], the EC50 is 1.47 µM (active).
Consider `COC(=O)c1coc(-c2cnc(OC)nc2)n1`, for which, in test [1], the EC50 was > 100 µM (inactive).
As for `CN(C)c1ccc(C2(c3ccc(N(C)C)cc3)OC(=O)c3cc(N(C)C)ccc32)cc1`, the AC50 in test [2] is 0.251 µM (inconclusive); in test [12] it was 7.94 µM (inconclusive).
On to `CCOC(=O)Cc1csc(NC(=O)CSc2nnc(-c3ccncc3)o2)n1`, for which the EC50 in test [5] was > 180 µM (inactive); in test [6], > 150 µM (inactive); in [8], > 150 µM (inactive); in test [13] it was > 53 µM (inactive); in test [11], 0.517 µM (active).
`O=C(Nc1nnc(-c2ccco2)o1)c1cccc(Cl)c1`: the EC50 is > 180 µM (inactive) in test [5], > 150 µM (inactive) in test [6], > 150 µM (inactive) in [8] and 1.33 µM (active) in [11].
Regarding `CC(CN1c2ccccc2Sc2ccccc21)N(C)C` (centres undefined) [PROMETHAZINE HYDROCHLORIDE], the AC50 was 15.8 µM (inconclusive) in test [2] and 0.367 µM (active) in test [16]. The EC50 in test [14] and in test [15] was > 20 µM (not active) throughout.
For `O=C(NCCN1CCCC1)c1ccc(Cn2c(=S)[nH]c3cc4c(cc3c2=O)OCO4)cc1`, the IC50 in [17] is 27.2 µM (inactive).
As to `CC1(C)CCC2=C(O1)c1ccccc1C(=O)C2=O` [LAPACHONE], the AC50 in test [2] was 15.8 µM (inconclusive).

In general, AC50 refers to the concentration giving half of the maximal activity seen.

The values above are taken from ChEMBL document CHEMBL1201862, “PubChem BioAssay data set” (2004).
